# “Also recorded” adds a separate entry of the source. Like-named read-outs stand apart in the source and are kept apart here.
# Legend:
# [1] = system: ATP level in BCG cultures; type: cell-based, M. bovis BCG; settings: for ATP[M] levels, single time-point and time-course experiments: all time-points tested
# [2] = system: mycolic acid synthesis in BCG; type: cell-based, M. bovis BCG; settings: BCG early log phase, 100 μg/ml, 10 minutes post exposure
# [3] = system: BCG; experiment: MIC in BCG; type: cell-based, M. bovis BCG; settings: Mycobacterium tuberculosis variant bovis BCG
# [4] = cited from earlier work
# [5] = system: M. tuberculosis H37Rv; experiment: BACTEC radiometric growth procedure, activity in the presence of ethanol; type: cell-based, Mycobacterium tuberculosis (H37Rv); settings: for potentiation of growth inhibition by ethanol: 0.05% ethanol, M. tuberculosis; for MIC: Mycobacterium tuberculosis, H37RV, M. tuberculosis H37Rv, BACTEC
# [6] = system: M. smegmatis; settings: concentrations up to 100 μg/ml; previously reported; cited from earlier work
# [7] = system: mycolic acid synthesis in BCG; settings: previously reported; cited from earlier work
# [8] = system: atpF (Rv1306) and hsp (Rv0251c); type: cell-based, M. bovis BCG; settings: BCG treated overnight
# [9] = system: b-subunit and hsp homologs; experiment: 2-dimensional protein profiles of OSA-treated M. smegmatis; type: cell-based
# Description: Protein assays: mycobacteria and cultures. Either DMSO (diluent), OSA. (6.25 and 100 μg/ml), cerulenin (24 μg/ml) or isoniazid (1.0 μg/ml) were added to 20 ml control and treated cultures, respectively. Following additional incubation for 24 hours under the same conditions, 2 ml aliquots of cells were harvested by centrifugation (13,000× g for 30 seconds), the supernatant removed, and the process repeated once using 1×PBS. The cellular contents of each tube were divided into 2 to 3 Eppendorfs (roughly 3 to 5 OD units per tube), and 250 μl of a lysis solution containing 3M urea (Sigma), 0.5% Triton X-100 (Sigma), […] dithiothreitol (DTT) (Gibco BRL, Life Technologies, Gaithersburg, Md.) and […] Pharmalyte (Pharmacia Biotech, Piscataway, N.J.) was added. Subsequently, phenylmethylsulfonyl fluoride (PMSF) (Sigma) (100 μg/ml) and leupeptin (2 μg/ml) (Sigma) were also added. Mixtures containing cells and lysis solution were beadbeaten at maximum speed for 60 seconds in a Biospec Mini-8 beadbeater using 200-300 μm glass beads (Sigma). This process was repeated twice per sample with 30-second intervals on ice between agitations. […] Protein concentration was determined using a standardized colorimetric assay (Coomassie Plus, Pierce, Rockford, Ill.) and BSA standards (Pierce) in a Shimadzu UC-1201 spectrophotometer. Quantitated samples were aliquoted and frozen at −70° C. […]
# [10] = 5 minutes post-exposure, 16× MIC or stated inhibitor concentration
smiles,measurement,setting,value
"C(=NC1CCCCC1)=NC1CCCCC1 [DCCD, dicyclohexylcarbodiimide]",effect on ATP level versus untreated BCG,[1]; [10],statistically significant decrease
same,decrease in ATP[M] level,"[1]; BCG, 100 μg/ml, all timepoints (1, 3, 24 hours)",95%
same,"ATP[M] levels, single time-point and time-course experiments",[1]; BCG,decreased significantly
same,decrease in total mycolic acid levels compared to untreated controls,[2],79%
C/C=C/C/C=C/CCC(=O)[C@H]1O[C@H]1C(N)=O [cerulenin],effect on ATP level versus untreated BCG,[1]; [10],No appreciable decrease
C=C(C)[C@H]1Cc2c(ccc3c2O[C@@H]2COc4cc(OC)c(OC)cc4[C@@H]2C3=O)O1 [rotenone],effect on ATP level versus untreated BCG,[1],No appreciable decrease
"O=C(CC(=O)C(F)(F)F)c1cccs1 [TTFA, thenoyltrifluoroaceton]",effect on ATP level versus untreated BCG,[1]; [10],only a moderate decrease
same,decrease in total mycolic acid levels compared to untreated controls,[2],46%
"CO[C@H]1/C=C/O[C@@]2(C)Oc3c(C)c(O)c4c(O)c(c(/C=N/N5CCN(C)CC5)c(O)c4c3C2=O)NC(=O)/C(C)=C\C=C\[C@H](C)[C@H](O)[C@@H](C)[C@@H](O)[C@@H](C)[C@H](OC(C)=O)[C@@H]1C [RIF, rifampin]",effect on ATP level versus untreated BCG,[1]; [10],no appreciable difference
"NNC(=O)c1ccncc1 [INH, isoniazid]",effect on ATP level versus untreated BCG,[1]; [10],no appreciable difference
"CCCCCCCCS(=O)(=O)CC(N)=O [OSA, n-octanesulfonylacetamide]",MIC,[3],6.25 µg/mL
same,limit of solubility,[4],100 µg/mL
same,potentiation of growth inhibition by ethanol,[5],potentiated
same,MIC,[5]; with 0.05% ethanol,< 1.5 µg/mL
same,MIC,"[5]; without ethanol, read-out: MIC",6.25 µg/mL
same,susceptibility of M. smegmatis,[6],intrinsically resistant
same,mycolic acid levels in BCG,[7],decreased
same,level of hsp expression by RT-PCR,[8],marked increase
same,overexpression of hsp and b-subunit homologs,[9],no proteins consistent with these molecular weights or pI's were overexpressed; also recorded: neither protein was overexpressed
same,effect on ATP level versus untreated BCG,[1]; [10],significantly decreased
same,reduction in ATP[M] versus untreated controls,"[1]; BCG, 100 μg/ml, 24 hours",85%
same,decrease in ATP[M] level versus untreated controls,"[1]; BCG, 100 μg/ml, one hour post exposure",46%
same,reduction in ATP[M] versus untreated controls,"[1]; BCG, 100 μg/ml, three hours",54%
same,"ATP[M] levels, single time-point and time-course experiments",[1]; BCG,decreased significantly
same,decrease in total mycolic acid levels compared to untreated controls,[2],43%
"CC[C@@H](CO)NCCN[C@@H](CC)CO [EMB, ethambutol]",effect on ATP level versus untreated BCG,[1]; [10],no appreciable difference
O=c1oc2ccccc2c(O)c1Cc1c(O)c2ccccc2oc1=O [dicumarol],effect on ATP level versus untreated BCG,[1]; [10],No appreciable decrease
"[H]/N=C(/N)N[C@H]1[C@H](O)[C@@H](O)[C@H](O[C@@H]2O[C@@H](C)[C@](O)(C=O)[C@H]2O[C@@H]2O[C@@H](CO)[C@H](O)[C@@H](O)[C@@H]2NC)[C@@H](N/C(N)=N\[H])[C@@H]1O [STR, streptomycin]",potentiation of growth inhibition by ethanol,[5],No potentiation
same,effect on ATP level versus untreated BCG,[1]; [10],no appreciable difference
